Experiment [1] has as its target carbonic anhydrase II (CAII) (Homo sapiens, UniProt P00918). In words: SPR biomolecular interaction assay of CBS with immobilized CAII. The format is binding. As to conditions: CBS 40 μM to 80 nM in phosphate-buffered saline, run over CAII surface. The text has this:
During use, light source 142 directs a light beam 150 toward prism 120 by way of suitable optics. Light beam 150 passes into and through light-transmissive support 105 and reflects off metal layer 107. Reflected light 152 is received by optical detector 144. Optical detector 144 passes a corresponding signal to the detection circuitry 146. The ligand 102 is contacted with sample and may bind to analytes in the sample. Binding of analyte and ligand 102 causes a change in a property of the reflected light 152 that can be detected by optical detection system 130. Upon detection of the change in a property of the reflected light 152, the detection system may produce a sample-responsive signal. The resultant sample responsive signal may then be employed to assess the presence of analyte in the sample. In certain embodiments, the sample-responsive signal is in the form of a “sensorgram.” A sensorgram is a plot of response (measured in “resonance units” or “RU”) as a function of time. An increase of RU corresponds to an increase of mass on the sensor surface. […]
The ligand, (CAII) is immobilized on the surface layer as stated above in “ligand attachment”. […] Binding curves are produced of the analyte interaction with the enzyme and binding rates are calculated.

A short description of experiment [2]: Non-specific binding test of CAII on the sensor surface without EDC/NHS activation. As to conditions: CAII flowed over surface 101 without prior activation with EDC/NHS. The source says:
Present on the activated dielectric surface 110 is a chelated metal ion linking layer 104. […] (RU stands for resonance unit and is directly proportional to the concentration of biomolecules on a surface. 1 RU is ca. 1 pg/mm^2.)
To test for non-specific binding, a ligand (CAII) was flowed over surface 101 through chamber 136 in the same manner as above but without any prior activation with EDC/NHS.

The text below walks through data of patent US20090084166A1, “Sensors comprising a chelated metal ion linker layer” (priority 2007, published 2009).

With carboxybenzenesulfonamide [CBS], the “Response units (binding to immobilized CAII)” value in experiment [1] was “proportional to the concentration of the analyte and are cleanly seen above the baseline”.

carbonic anhydrase II [CAII]: in experiment [2], the non-specific binding entry is reported as “ca. 10 RU”.
